Laboratory results from patent US12370241B2, “Nasal powder formulation for treatment of hypoglycemia” (AMPHASTAR PHARMACEUTICALS, INC., priority 2015, dated 2025).
Read-outs that look alike come from different tables or passages of the source.

How the values were obtained:
[1] = system: children with type 1 diabetes with induced hypoglycemia; details: injected (SC) (Stenninger 1993); cited from earlier work
[2] = system: patients with type 1 diabetes; experiment: Phase III crossover study, intranasal vs IM glucagon after insulin-induced hypoglycemia (Example 9); assay type: in vivo, human; details: post-dosing
Description: A multiple center, randomized, two-way, crossover Phase III study in which patients with type 1 diabetes (T1D, n=75) were enrolled to evaluate the effectiveness and safety of a single dose of intranasally administered glucagon (the powder that is the subject of this invention) compared to glucagon administered by IM injection following insulin-induced hypoglycemia was conducted. The primary endpoint in this study was the proportion of patients who achieved an increase in blood glucose levels to ≥70 mg/dL within 30 minutes of treatment with glucagon or a […] increment in blood glucose within 30 minutes of treatment with glucagon. The protocol used insulin to reduce blood glucose levels to the hypoglycemic range (target nadir of <50 mg/dL).

[3] = system: adults with hypoglycemia; details: cited from earlier work
[4] = water; cited from earlier work

Row | Substance | Time for which plasma glucose levels continued to rise [1] | Time by which blood glucose increased to within the normal range in most subjects [2] | Time for which glucose levels continued to increase after administration ([3]; adults with hypoglycemia, injected (Hvidberg 1994; Rosenfalck 1992)) | Time after dosing at which glucose levels reach a plateau ([3]; adults with type 1 diabetes and insulin-induced hypoglycemia, injected (Rosenfalck 1992)) | Time for which glucose levels continued to increase after administration ([3]; healthy adults with insulin induced hypoglycemia, injected (Hvidberg 1994)) | Aqueous solubility [4]
1 | glucagon [injected glucagon] | at least 45 minutes | about 15 minutes | at least 90 minutes | at least 90 minutes | at least 90 minutes | 
2 | hydroxylpropyl-β-CD [HP-β-CD] |  |  |  |  |  | higher aqueous solubility than α-CD
